This experiment relates to CHO. The experiment can be described thus: Stimulation of glycosaminoglycan chains formation in xylosyltransferase-deficient CHO pgsA-745 cells by liquid scintillation spectrophotometry. Format: functional, cell-based. Particulars: Cricetulus griseus.

Activity calls are given as the source filed them. The calls are words filed in the database; no cut-off is given here.

`COc1cc2c(=O)oc3c(OC)c(O[C@@H]4OC[C@@H](O)[C@H](O)[C@H]4O)cc4c(=O)oc(c1OC)c2c34`: the result was Active.
For the compound `COc1c(O)cc2c(=O)oc3c(OC)c(O[C@@H]4OC[C@@H](O)[C@H](O)[C@H]4O)cc4c(=O)oc1c2c34`, the result was Active.

For the origin of these results see ChEMBL document CHEMBL1144074, “Glycoside primers of Psittacanthus cucullaris” (J Nat Prod, 1999).
